SMILES strings stand for the structures.

The IC50 is the concentration that inhibits the measured activity by half.

The target of the test is T1, recombinant human FLAP protein (Homo sapiens, UniProt P20292).
T1 construct: made in house; host or cells: Sf9 insect cells (membrane fraction, 100,000 x g pellet)
T1 sequence (P20292 1-161): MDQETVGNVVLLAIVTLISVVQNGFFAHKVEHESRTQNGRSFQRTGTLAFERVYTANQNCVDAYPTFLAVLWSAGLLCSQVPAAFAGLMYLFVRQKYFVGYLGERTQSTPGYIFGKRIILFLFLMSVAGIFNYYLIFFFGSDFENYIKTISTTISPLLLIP
The test can be described thus: FLAP binding assay, displacement of iodinated (125I) FLAP inhibitor, Scintillation Proximity Assay format. The settings on record: [125I]L-691,831 probe, membrane protein from sf9 cells; read-out: hFLAP binding IC50. On the procedure: Compounds are assessed for the ability to bind to FLAP in a binding assay that measures compound-specific displacement of an iodinated (^125I) FLAP inhibitor via a Scintillation Proximity Assay format (adapted from S. Charleson et al., Mol. Pharmacol., 1992, 41, 873-879).
Cell pellets produced from sf9 insect cells expressing recombinant human FLAP protein are resuspended in buffer A [15 mM Tris-HCl (pH 7.5), 2 mM MgCl2, 0.3 mM EDTA, 1 mM PMSF]. The cells are lysed with a Dounce homogenizer and the material is centrifuged at 10,000×g for 10 minutes. The supernatant is then collected and centrifuged at 100,000×g for 60 minutes. To prepare membrane protein for an assay, an aliquot of the 100,000×g pellet is resuspended in 1 ml of buffer A, Dounce homogenized, and finally subjected to polytron mixing (30 seconds). Membrane protein (25 μl, 5 μg) is mixed with WGA SPA beads (Amersham) and stirred for 1 h. To an assay plate (Perkin Elmer FlexiPlate) is added 25 μl of test compound prepared in Binding buffer [100 mM Tris (pH 7.5), 140 mM NaCl, 5% glycerol, 2 mM EDTA, 0.5 mM TCEP, 0.05% Tween 20], 25 μl of [^125I]L-691,831 (an iodinated analog of MK-591, Charleson et al. Mol. Pharmacol., 41, 873-879, 1992) and finally 50 μl of the bead/protein mixture. (final concentrations: beads, 200 μg/well; protein, 5 μg/well; [^125I] probe, 0 08 nM/well (17 nCi/well). The plates are shaken for 2 h before reading on a Microbeta plate reader. Non-specific binding is determined by the addition of 10 μM cold L-691,831 compound.

As for `CC(C)(C)n1c(-c2cccc(F)c2-n2cncn2)nc2cc(-c3cnc(N)nc3)ccc21` [5-[1-tert-Butyl-2-(3-fluoro-2-1,2,4-triazol-1-yl-phenyl)-1H-benzimidazol-5-yl]-pyrimidin-2-ylamine], the half-maximal inhibitory concentration (IC50) was 1.7 nM.

Take `Cn1ncnc1-c1ccccc1-c1nc2cc(-c3cnc(N)nc3)ccc2n1C(C)(C)C` [5-{1-tert-Butyl-2-[2-(2-methyl-2H-1,2,4-triazol-3-yl)-phenyl]-1H-benzimidazol-5-yl}-pyrimidin-2-ylamine]: the half-maximal inhibitory concentration (IC50) was 6.1 nM.

Turning to `CC(C)(C)n1c(-c2ccccc2-c2ncn(CC#N)n2)nc2cc(-c3cnc(N)nc3)ccc21` [(3-{2-[5-(2-Amino-pyrimidin-5-yl)-1-tert-butyl-1H-benzoimidazol-2-yl]-phenyl}-[1,2,4]triazol-1-yl)-acetonitrile], the IC50 was 4.2 nM.

Consider `CC(C)(C)n1c(-c2cc(S(C)(=O)=O)ccc2-n2cncn2)nc2cc(-c3cnc(N)nc3)ccc21` [5-[1-tert-Butyl-2-(5-methanesulfonyl-2-[1,2,4]triazol-1-yl-phenyl)-1H-benzoimidazol-5-yl]-pyrimidin-2-ylamine], for which the IC50 stood at 36.8 nM.

For `Cc1ccc(-n2cncn2)c(-c2nc3cc(-c4cnc(N)nc4)ccc3n2C(C)(C)C)c1`, the 50% inhibitory concentration (IC50) was determined as 1.6 nM.

Regarding `COC(=O)c1cc(-c2ccc(-n3cncn3)c(-c3nc4cc(-c5cnc(N)nc5)ccc4n3C(C)(C)C)c2)cs1` [4-{3-[5-(2-Amino-pyrimidin-5-yl)-1-tert-butyl-1H-benzoimidazol-2-yl]-4-[1,2,4]triazol-1-yl-phenyl}-thiophene-2-carboxylic acid methyl ester], the IC50 amounted to 5.2 nM.

Turning to `CC(C)COC(=O)c1ncn(-c2ccc(C#N)cc2-c2nc3cc(-c4cnc(N)nc4)ccc3n2C(C)(C)C)n1` [1-{2-[5-(2-Amino-pyrimidin-5-yl)-1-tert-butyl-1H-benzoimidazol-2-yl]-4-cyano-phenyl}-1H-[1,2,4]triazole-3-carboxylic acid isobutyl ester], the IC50 worked out at 12.4 nM.

With `COc1ccc(-n2ccc(C)n2)c(-c2nc3cc(-c4cnc(N)nc4)ccc3n2C(C)(C)C)c1` [5-{1-tert-Butyl-2-[5-methoxy-2-(3-methyl-pyrazol-1-yl)-phenyl]-1H-benzimidazol-5-yl}-pyrimidin-2-ylamine], the IC50 is 8.8 nM.

Turning to `COCCn1cnc(-c2ccccc2-c2nc3cc(-c4cnc(N)nc4)ccc3n2C(C)(C)C)n1` [5-(1-tert-Butyl-2-{2-[1-(2-methoxy-ethyl)-1H-[1,2,4]triazol-3-yl]-phenyl}-1H-benzoimidazol-5-yl)-pyrimidin-2-ylamine], the half-inhibitory concentration (IC50) amounted to 3.3 nM.

With `CC(C)(C)n1c(-c2ccccc2-n2cncn2)nc2cc(-c3cnc4c(c3)CCN4)ccc21` [1-tert-Butyl-5-(2,3-dihydro-1H-pyrrolo[2,3-b]pyridin-5-yl)-2-(2-1,2,4-triazol-1-yl-phenyl)-1H-benzimidazole], the IC50 is 2.1 nM.

On to `Cc1ccn(-c2ccc(C#N)cc2-c2nc3cc(-c4cnc(N)nc4)ccc3n2C(C)(C)C)n1` [3-[5-(2-Amino-pyrimidin-5-yl)-1-tert-butyl-1H-benzoimidazol-2-yl]-4-(3-methyl-pyrazol-1-yl)-benzonitrile], for which the half-inhibitory concentration (IC50) came to 1.8 nM.

With `CCN(CC)C(=O)Oc1ccc(-n2cncn2)c(-c2nc3cc(-c4cnc(N)nc4)ccc3n2C(C)(C)C)c1` [Diethyl-carbamic acid 3-[5-(2-amino-pyrimidin-5-yl)-1-tert-butyl-1H-benzimidazol-2-yl]-4-1,2,4-triazol-1-yl-phenyl ester], the IC50 is 8.8 nM.

Regarding `Cc1ncnn1-c1ccc(Cl)cc1-c1nc2cc(-c3cnc(N)nc3)ccc2n1C(C)(C)C` [5-{1-tert-butyl-2-[5-chloro-2-(5-methyl-1,2,4-triazol-1-yl)-phenyl]-1H-benzimidazol-5-yl}-pyrimidin-2-ylamine], the IC50 is 6.9 nM.

`CN(C)C(=O)Oc1ccc(-n2cncn2)c(-c2nc3cc(-c4cnc(N)nc4)ccc3n2C(C)(C)C)c1` [Dimethyl-carbamic acid 3-[5-(2-amino-pyrimidin-5-yl)-1-tert-butyl-1H-benzimidazol-2-yl]-4-1,2,4-triazol-1-yl-phenyl ester]: the half-inhibitory concentration (IC50) was determined as 15.5 nM.

With `CC(C)(C)n1c(-c2cc(C#N)ccc2-n2cncn2)nc2cc(-c3cnc(N)nc3)ccc21` [3-[5-(2-Amino-pyrimidin-5-yl)-1-tert-butyl-1H-benzimidazol-2-yl]-4-1,2,4-triazol-1-yl-benzonitrile], the half-inhibitory concentration (IC50) stood at 3.1 nM.

Take `CC(C)(Oc1ccc(-c2nc3cc(-c4cnc(N)nc4)ccc3n2C(C)(C)C)c(-n2cncn2)c1)C(=O)O` [2-{4-[5-(2-Amino-pyrimidin-5-yl)-1-tert-butyl-1H-benzoimidazol-2-yl]-3-[1,2,4]triazol-1-yl-phenoxy}-2-methyl-propionic acid]: the IC50 is 5.5 nM.

Consider `CC(C)(C)n1c(-c2ccccc2-n2cc(Cl)cn2)nc2cc(-c3cnc(N)nc3)ccc21` [5-{1-tert-Butyl-2-[2-(4-chloro-pyrazol-1-yl)-phenyl]-1H-benzimidazol-5-yl}-pyrimidin-2-ylamine], for which the 50% inhibitory concentration (IC50) was determined as 4.1 nM.

`CC(C)(C)n1c(-c2cc(-c3csc(C(=O)O)c3)ccc2-n2cncn2)nc2cc(-c3cnc(N)nc3)ccc21` [4-{3-[5-(2-Amino-pyrimidin-5-yl)-1-tert-butyl-1H-benzoimidazol-2-yl]-4-[1,2,4]triazol-1-yl-phenyl}-thiophene-2-carboxylic acid]: the concentration for half-maximal inhibition (IC50) is 10.6 nM.

In the case of `COc1ccc(-c2nc(C)no2)c(-c2nc3cc(-c4cnc(N)nc4)ccc3n2C(C)(C)C)c1` [5-{1-tert-Butyl-2-[5-methoxy-2-(3-methyl-1,2,4-oxadiazol-5-yl)-phenyl]-1H-benzimidazol-5-yl}-pyrimidin-2-ylamine], the IC50 stood at 24 nM.

With `COc1ccc(-c2csc(C)n2)c(-c2nc3cc(-c4cnc(N)nc4)ccc3n2C(C)(C)C)c1` [5-{1-tert-Butyl-2-[5-methoxy-2-(2-methyl-thiazol-4-yl)-phenyl]-1H-benzimidazol-5-yl}-pyrimidin-2-ylamine], the IC50 stood at 1.7 nM.

As for `COc1ccc(-c2nc(C)ns2)c(-c2nc3cc(-c4cnc(N)nc4)ccc3n2C(C)(C)C)c1` [5-{1-tert-Butyl-2-[5-methoxy-2-(3-methyl-1,2,4-thiadiazol-5-yl)-phenyl]-1H-benzimidazol-5-yl}-pyrimidin-2-ylamine], the IC50 came to 4.3 nM.

As to `CC(C)(C)n1c(-c2ccccc2-n2cncn2)nc2cc(-c3cnc(N)nc3)ccc21`, the half-maximal inhibitory concentration (IC50) was determined as 2.7 nM.

Take `COc1ccc(-c2nc3cc(-c4cnc(N)nc4)ccc3n2C(C)(C)C)c(-n2cncn2)c1` [5-[1-tert-Butyl-2-(4-methoxy-2-1,2,4-triazol-1-yl-phenyl)-1H-benzimidazol-5-yl]-pyrimidin-2-ylamine]: the IC50 was 2.9 nM.

Consider `Cc1ccnn1-c1ccc(C#N)cc1-c1nc2cc(-c3cnc(N)nc3)ccc2n1C(C)(C)C` [3-[5-(2-Amino-pyrimidin-5-yl)-1-tert-butyl-1H-benzoimidazol-2-yl]-4-(5-methyl-pyrazol-1-yl)-benzonitrile], for which the IC50 came out at 1.3 nM.

As to `COc1ccc(-n2cccn2)c(-c2nc3cc(-c4cnc5c(c4)CCN5)ccc3n2C(C)(C)C)c1` [1-tert-Butyl-5-(2,3-dihydro-1H-pyrrolo[2,3-b]pyridin-5-yl)-2-(5-methoxy-2-pyrazol-1-yl-phenyl)-1H-benzimidazole], the 50% inhibitory concentration (IC50) amounted to 1.5 nM.

In the case of `COc1ccc(-n2cccn2)c(-c2nc3cc(-c4cnc(N)nc4)ccc3n2C(C)(C)C)c1` [5-[1-tert-Butyl-2-(5-methoxy-2-pyrazol-1-yl-phenyl)-1H-benzimidazol-5-yl]-pyrimidin-2-ylamine], the IC50 came out at 5.2 nM.

For `Cn1nnc(-c2ccccc2-c2nc3cc(-c4cnc(N)nc4)ccc3n2C(C)(C)C)n1` [5-{1-tert-Butyl-2-[2-(2-methyl-2H-tetrazol-5-yl)-phenyl]-1H-benzimidazol-5-yl}-pyrimidin-2-ylamine], the concentration for half-maximal inhibition (IC50) was 1.3 nM.

Turning to `CC(C)(C)n1c(-c2ccccc2-n2ccc(C(F)(F)F)n2)nc2cc(-c3cnc(N)nc3)ccc21` [5-{1-tert-Butyl-2-[2-(3-trifluoromethyl-pyrazol-1-yl)-phenyl]-1H-benzimidazol-5-yl}-pyrimidin-2-ylamine], the IC50 came to 4.5 nM.

For `Cc1ccn(-c2ccccc2-c2nc3cc(-c4cnc(N)nc4)ccc3n2C(C)(C)C)n1` [5-{1-tert-Butyl-2-[2-(3-methyl-pyrazol-1-yl)-phenyl]-1H-benzimidazol-5-yl}-pyrimidin-2-ylamine], the IC50 was found to be 1.1 nM.

On to `CC(C)Oc1ccc(-n2cncn2)c(-c2nc3cc(-c4cnc(N)nc4)ccc3n2C(C)(C)C)c1` [5-[1-tert-Butyl-2-(5-isopropoxy-2-1,2,4-triazol-1-yl-phenyl)-1H-benzimidazol-5-yl]-pyrimidin-2-ylamine], for which the IC50 came out at 2.2 nM.

The values above are taken from US8420655B2, “Benzimidazole inhibitors of leukotriene production” (Boehringer Ingelheim International GmbH, priority 2009, dated 2013).
